Source: article PMC5459845, “Expression and functional analysis of the lysine decarboxylase and copper amine oxidase genes from the endophytic fungus Colletotrichum gloeosporioides ES026” (Scientific Reports, 2017)

Experiments:
CgLDC = target: T1, CgLDC (Colletotrichum gloeosporioides, UniProt A0A1X9J191); test: LC-MS detection of cadaverine (m/z […]); assay type: biochemical; details: pyridoxal phosphate 40 µg, potassium phosphate pH 8.0, 37 °C, 45 min; boiled enzyme as negative control
T1 construct: 256 residues, 28 kDa, cDNA 769 bp
T1 sequence (A0A1X9J191 62-294): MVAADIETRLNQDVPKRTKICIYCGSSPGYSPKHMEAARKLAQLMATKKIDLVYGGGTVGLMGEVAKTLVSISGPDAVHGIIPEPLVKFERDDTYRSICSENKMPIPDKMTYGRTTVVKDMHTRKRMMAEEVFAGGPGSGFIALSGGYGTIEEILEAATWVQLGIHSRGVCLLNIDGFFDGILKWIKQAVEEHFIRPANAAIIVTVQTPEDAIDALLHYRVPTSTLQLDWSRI

CgCAO = target: T2, CgCAO (Colletotrichum gloeosporioides, UniProt A0A191JKR0); test: LC-MS detection of delta1-piperideine (m/z […]); assay type: biochemical; details: 1 mM cadaverine, 50 mM Tris-HCl pH 8.0, 25 °C, 16 h; boiled enzyme as negative control
T2 construct: 672 residues, 76 kDa, cDNA 2072 bp
T2 sequence (A0A191JKR0 1-684): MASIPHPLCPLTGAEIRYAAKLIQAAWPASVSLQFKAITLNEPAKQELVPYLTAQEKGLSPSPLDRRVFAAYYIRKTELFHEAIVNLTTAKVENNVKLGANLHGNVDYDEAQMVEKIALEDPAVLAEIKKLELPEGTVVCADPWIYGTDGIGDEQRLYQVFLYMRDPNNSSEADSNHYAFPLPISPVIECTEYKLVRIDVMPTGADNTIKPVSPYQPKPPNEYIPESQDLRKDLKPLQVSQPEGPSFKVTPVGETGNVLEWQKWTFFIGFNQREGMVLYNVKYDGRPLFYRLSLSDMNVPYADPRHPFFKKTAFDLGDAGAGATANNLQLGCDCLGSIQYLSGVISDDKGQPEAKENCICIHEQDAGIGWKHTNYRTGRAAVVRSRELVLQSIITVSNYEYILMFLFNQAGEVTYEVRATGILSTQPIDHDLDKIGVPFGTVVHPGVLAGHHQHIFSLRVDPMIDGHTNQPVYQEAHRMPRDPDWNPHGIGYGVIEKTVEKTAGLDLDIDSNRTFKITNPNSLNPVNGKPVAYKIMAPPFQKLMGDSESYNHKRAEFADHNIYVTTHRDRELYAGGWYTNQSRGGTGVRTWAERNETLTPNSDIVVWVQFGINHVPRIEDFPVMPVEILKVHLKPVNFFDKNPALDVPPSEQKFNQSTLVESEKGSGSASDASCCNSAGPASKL

NCCCC[C@H](N)C(=O)O [L-lysine]
LC-MS detection of cadaverine (m/z 103) (CgLDC): CgLDC catalyzed the conversion of L-lysine to cadaverine

NCCCCCN [cadaverine]
LC-MS detection of delta1-piperideine (m/z 84) (CgCAO): CgCAO converted cadaverine to 5-aminopentanal
